Measured values from patent US20070149779A1, “PRIMIDONE PROCESS AND COMPOSITIONS” (priority 2005, published 2007).
Values after ≈ are worked out from the molar mass of the structure shown.

Tests used:
[1] = Bulk density, tapped density and Carr index of primidone and primidone granules; format: physicochemical; conditions: for Carr Index: percent compressibility from tapped and bulk density
Source text: “Carr index” as used herein is defined as the percent compressibility, that is a percentage ratio of the difference between tapped bulk density and initial bulk density to tapped bulk density.

[2] = cited from earlier work

| Bulk Density, (Db) [1] [g/mL] | Tapped density (Dt) [1] [g/mL] | Carr Index [1] [%] | SMILES | solubility in water [2] [µg/mL] |
| --- | --- | --- | --- | --- |
| 0.221 | 0.307 | 28 | CCC1(c2ccccc2)C(=O)NCNC1=O [Primidone Particle size D90 7.1 μm] | – |
| 0.850 | 0.905 | 6.1 | CCC1(c2ccccc2)C(=O)NCNC1=O [Primidone Particle size D90 307 μm] | – |
| – | – | – | CCC1(c2ccccc2)C(=O)NCNC1=O [Primidone, 5-ethyldihydro-5-phenyl-4,6 (1H, 5H pyrimidinedione)] | 600 (≈ 2750 µM) |
